According to ChEMBL document CHEMBL3046894, “Synthesis and Herbicidal Activity of Pyrimidinyl Salicylic and Thiosalicylic Acids” (J Pestic Sci, 1996):
The source made the active and inactive calls. The calls are words filed in the database; no cut-off is given here.

Tests used:
Zea mays [1] = experiment: Post-emergence phytotoxicity against Zea mays (maize) assessed as mortality at 1.6 g a.i/10 a applied 11 days after germination as foliar spray; format: organism-based; conditions: in vivo, other, 264 h
Glycine max [2] = experiment: Pre-emergence phytotoxicity against Glycine max (soybean) assessed as mortality at 1.6 g a.i/10 a; format: organism-based; conditions: in vivo, other
Gossypium hirsutum [3] = experiment: Post-emergence phytotoxicity against Gossypium hirsutum (cotton) assessed as mortality at 1.6 g a.i/10 a applied 11 days after germination as foliar spray; format: organism-based; conditions: in vivo, other, 264 h
Zea mays [4] = experiment: Post-emergence phytotoxicity against Zea mays (maize) assessed as mortality at 6.3 g a.i/10 a applied 11 days after germination as foliar spray; format: organism-based; conditions: in vivo, other, 264 h
[5] = (§1) Post-emergence phytotoxicity against Glycine max (soybean) assessed as mortality at 1.6 g a.i/10 a applied 11 days after germination as foliar spray; format: organism-based; conditions: in vivo, 1.6 g a.i/10 a
[6] = (§2) Pre-emergence phytotoxicity against Gossypium hirsutum (cotton) assessed as mortality at 6.3 g a.i/10 a; format: organism-based; conditions: in vivo, 6.3 g a.i/10 a, read-out: Activity
Gossypium hirsutum [7] = experiment: Pre-emergence phytotoxicity against Gossypium hirsutum (cotton) assessed as mortality at 1.6 g a.i/10 a; format: organism-based; conditions: in vivo, other
Ipomoea lacunosa = experiment: Pre-emergence herbicidal activity against Ipomoea lacunosa assessed as mortality at 1.6 g a.i/10 a; format: functional
Zea mays [8] = experiment: Pre-emergence phytotoxicity against Zea mays (maize) assessed as mortality at 1.6 g a.i/10 a; format: organism-based; conditions: in vivo, other
Glycine max [9] = experiment: Pre-emergence phytotoxicity against Glycine max (soybean) assessed as mortality at 6.3 g a.i/10 a; format: organism-based; conditions: in vivo, other
Gossypium hirsutum [10] = experiment: Post-emergence phytotoxicity against Gossypium hirsutum (cotton) assessed as mortality at 6.3 g a.i/10 a applied 11 days after germination as foliar spray; format: organism-based; conditions: in vivo, other, 264 h
Xanthium strumarium [11] = experiment: Pre-emergence herbicidal activity against Xanthium strumarium (cocklebur) assessed as mortality at 1.6 g a.i/10 a; format: functional
Zea mays [12] = experiment: Pre-emergence phytotoxicity against Zea mays (maize) assessed as mortality at 6.3 g a.i/10 a; format: organism-based; conditions: in vivo, other
Xanthium strumarium [13] = experiment: Pre-emergence herbicidal activity against Xanthium strumarium (cocklebur) assessed as mortality at 6.3 g a.i/10 a; format: functional
Glycine max [14] = experiment: as §1; format: organism-based; conditions: in vivo, other, 264 h
Glycine max [15] = experiment: Post-emergence phytotoxicity against Glycine max (soybean) assessed as mortality at 6.3 g a.i/10 a applied 11 days after germination as foliar spray; format: organism-based; conditions: in vivo, other, 264 h
Persicaria nodosa [16] = experiment: Post-emergence herbicidal activity against Persicaria nodosa assessed as growth inhibition at 25 g a.i/10 a applied 11 days after germination as foliar spray; format: functional, organism-based
Amaranthus retroflexus [17] = experiment: Post-emergence herbicidal activity against Amaranthus retroflexus assessed as growth inhibition at 25 g a.i/10 a applied 11 days after germination as foliar spray; format: functional, organism-based
Chenopodium album [18] = experiment: Pre-emergence herbicidal activity against Chenopodium album assessed as growth inhibition at 25 g a.i/10 a; format: functional, organism-based
Echinochloa crus-galli [19] = experiment: Post-emergence herbicidal activity against Echinochloa crus-galli (barnyard grass) assessed as growth inhibition at 25 g a.i/10 a applied 11 days after germination as foliar spray; format: functional, organism-based
Cyperus iria [20] = experiment: Post-emergence herbicidal activity against Cyperus iria assessed as growth inhibition at 25 g a.i/10 a applied 11 days after germination as foliar spray; format: functional, organism-based
Digitaria sanguinalis [21] = experiment: Pre-emergence herbicidal activity against Digitaria sanguinalis (hairy crabgrass) assessed as growth inhibition at 25 g a.i/10 a; format: functional, organism-based
Digitaria sanguinalis [22] = experiment: Post-emergence herbicidal activity against Digitaria sanguinalis (hairy crabgrass) assessed as growth inhibition at 25 g a.i/10 a applied 11 days after germination as foliar spray; format: functional, organism-based
Cyperus iria [23] = experiment: Pre-emergence herbicidal activity against Cyperus iria assessed as growth inhibition at 25 g a.i/10 a; format: functional, organism-based
Persicaria nodosa [24] = experiment: Pre-emergence herbicidal activity against Persicaria nodosa assessed as growth inhibition at 25 g a.i/10 a; format: functional, organism-based
Amaranthus retroflexus [25] = experiment: Pre-emergence herbicidal activity against Amaranthus retroflexus assessed as growth inhibition at 25 g a.i/10 a; format: functional, organism-based
Echinochloa crus-galli [26] = experiment: Pre-emergence herbicidal activity against Echinochloa crus-galli (barnyard grass) assessed as growth inhibition at 25 g a.i/10 a; format: functional, organism-based
Chenopodium album [27] = experiment: Post-emergence herbicidal activity against Chenopodium album assessed as growth inhibition at 25 g a.i/10 a applied 11 days after germination as foliar spray; format: functional, organism-based
Abutilon theophrasti [28] = experiment: Post-emergence herbicidal activity against Abutilon theophrasti (velvetleaf) assessed as mortality at 6.3 g a.i/10 a applied 11 days after germination as foliar spray; format: functional; conditions: 264 h
Abutilon theophrasti [29] = experiment: Post-emergence herbicidal activity against Abutilon theophrasti (velvetleaf) assessed as mortality at 1.6 g a.i/10 a applied 11 days after germination as foliar spray; format: functional; conditions: 264 h
Gossypium hirsutum [30] = experiment: as §2; format: organism-based; conditions: in vivo, other

SMILES | growth inhibition (GI) (Persicaria nodosa [16]) | growth inhibition (GI) (Amaranthus retroflexus [17]) | growth inhibition (GI) (Chenopodium album [18]) | growth inhibition (GI) (Echinochloa crus-galli [19]) | growth inhibition (GI) (Cyperus iria [20]) | growth inhibition (GI) (Digitaria sanguinalis [21]) | growth inhibition (GI) (Digitaria sanguinalis [22]) | growth inhibition (GI) (Cyperus iria [23]) | growth inhibition (GI) (Persicaria nodosa [24]) | growth inhibition (GI) (Amaranthus retroflexus [25]) | growth inhibition (GI) (Echinochloa crus-galli [26]) | growth inhibition (GI) (Chenopodium album [27]) | other results
COc1cc(OC)nc(Sc2cccc(F)c2C(=O)O)n1 | – | – | – | – | – | – | – | – | – | – | – | – | Activity (Zea mays [1]): Toxic; Activity (Glycine max [2]): Non-toxic; Activity (Gossypium hirsutum [3]): Non-toxic; Activity (Zea mays [4]): Toxic; mortality at 264 h [5]: > 90%; mortality [6]: < 50%; Activity (Gossypium hirsutum [7]): < 50%; Activity (Ipomoea lacunosa): <50%; Activity (Zea mays [8]): Toxic; Activity (Glycine max [9]): Non-toxic; Activity (Gossypium hirsutum [10]): Toxic; Activity (Xanthium strumarium [11]): <50%; Activity (Zea mays [12]): Toxic
COc1cc(OC)nc(Sc2cccc([N+](=O)[O-])c2C(=O)O)n1 | – | – | – | – | – | – | – | – | – | – | – | – | Activity (Zea mays [1]): Non-toxic; Activity (Glycine max [2]): Non-toxic; Activity (Xanthium strumarium [13]): <50%; Activity (Gossypium hirsutum [3]): Non-toxic; Activity (Zea mays [4]): Non-toxic; Activity (Glycine max [14]): Toxic; mortality [6]: < 50%; Activity (Gossypium hirsutum [7]): < 50%; Activity (Zea mays [8]): Non-toxic; Activity (Glycine max [9]): Toxic; Activity (Gossypium hirsutum [10]): Non-toxic; Activity (Xanthium strumarium [11]): <50%; Activity (Glycine max [15]): Toxic; Activity (Zea mays [12]): Toxic
COc1cc(OC)nc(Oc2cccc(-c3ccccc3)c2C(=O)O)n1 | Active | Active | Active | Active | Active | Active | Active | Active | Active | Active | Active | Active | –
COc1ccc(Oc2nc(OC)cc(OC)n2)c(C(=O)O)c1 | Active | Active | Active | Active | Active | Active | Active | Active | Active | Active | Active | inactive | –
COc1cc(OC)nc(Oc2cc(N)ccc2C(=O)O)n1 | Active | Active | inactive | inactive | Active | inactive | inactive | inactive | inactive | inactive | inactive | Active | –
COc1cc(OC)nc(Oc2c(C)cccc2C(=O)O)n1 | Active | Active | Active | inactive | Active | inactive | inactive | Active | inactive | Active | Active | inactive | –
COc1cc(OC)nc(Oc2cccc(OC(F)F)c2C(=O)O)n1 | Active | Active | Active | Active | Active | Active | Active | Active | Active | Active | Active | Active | Activity (Zea mays [1]): Toxic; Activity (Glycine max [2]): Toxic; mortality at 63 g/ha (Abutilon theophrasti [28]): > 90%; Activity (Gossypium hirsutum [3]): Toxic; Activity (Zea mays [4]): Toxic; mortality at 16 g/ha (Abutilon theophrasti [29]): > 90%; mortality at 264 h [5]: > 90%; Activity (Gossypium hirsutum [30]): Non-toxic; Activity (Gossypium hirsutum [7]): Non-toxic; mortality at 16 g/ha (Ipomoea lacunosa; Ipomoea lacunosa, pre-emergence): < 5%; Activity (Zea mays [8]): Non-toxic; Activity (Glycine max [9]): Toxic; Activity (Gossypium hirsutum [10]): Toxic; mortality at 16 g/ha (Xanthium strumarium [11]; Xanthium strumarium, pre-emergence): < 5%; Activity (Zea mays [12]): Toxic
COc1cc(OC)nc(Oc2cccc(SC)c2C(=O)O)n1 | Active | Active | inactive | Active | Active | inactive | Active | inactive | Active | Active | inactive | Active | Activity (Zea mays [1]): Toxic; mortality at 63 g/ha (Abutilon theophrasti [28]): > 90%; Activity (Gossypium hirsutum [3]): Toxic; Activity (Zea mays [4]): Toxic; mortality at 16 g/ha (Abutilon theophrasti [29]): > 90%; mortality at 264 h [5]: > 90%; Activity (Gossypium hirsutum [10]): Toxic
COc1cc(OC)nc(Oc2c(F)cccc2C(=O)O)n1 | Active | Active | Active | Active | Active | Active | inactive | Active | Active | Active | Active | Active | –
COc1cc(OC)nc(Cc2cccc(Cl)c2C(=O)O)n1 | Active | Active | Active | Active | Active | Active | Active | Active | Active | Active | Active | Active | –
COc1cc(OC)nc(Oc2cccc(OC(C)C)c2C(=O)O)n1 | Active | Active | Active | Active | Active | Active | Active | Active | Active | Active | Active | Active | –
COc1cc(OC)nc(Oc2ccc(C(F)(F)F)cc2C(=O)O)n1 | inactive | Active | inactive | inactive | inactive | inactive | inactive | inactive | inactive | inactive | inactive | inactive | –
COc1cc(OC)nc(Oc2ccc(I)cc2C(=O)O)n1 | Active | inactive | inactive | Active | Active | inactive | inactive | inactive | inactive | inactive | inactive | inactive | –
CNc1ccc(Oc2nc(OC)cc(OC)n2)c(C(=O)O)c1 | Active | Active | Active | Active | Active | inactive | Active | Active | Active | Active | inactive | Active | –
